Legend:
[1] = Additional toxicity study, subcutaneous twice a day for 10 days; assay type: in vivo; conditions: mice
Description: An additional toxicity study was performed by injecting mice subcutaneously twice a day with 20 mg/kg compound formulated in 5% DMSO/20% gamma-cyclodextrin or 22.5 mg/kg compound formulated in 10% DMSO/40% captisol. for 10 consecutive days. Animals were also dosed with gamma-cyclodextrin or captisol vehicle alone.

[2] = Initial pharmacokinetic studies in mice; assay type: in vivo
Description: Initial pharmacokinetic studies were conducted in mice to inform design of pre-clinical efficacy studies.

[3] = system: primary human patient ALL samples; experiment: Inhibition of primary human patient ALL samples; assay type: cell-based
Description: (§1) The majority of human leukemia cell lines with MLL translocations (3/4) were inhibited more potently than non-MLL cell lines (FIG. 3); although most non-MLL cells lines (4/6) were still sensitive to the compounds. […] Compound 1 also has inhibitory effects on primary human patient ALL samples with an IC50 of 4-20 nM.

[4] = system: human and mouse leukemia cell lines; experiment: Apoptosis (annexin V and propidium iodide staining) after a single treatment; assay type: cell-based
Text: Compound 1 induced death of human and mouse leukemia cell lines by apoptosis (annexin V and propidium iodide staining) within 3 days of a single treatment, indicating a cytotoxic as opposed to cytostatic effect.

[5] = Preliminary toxicity studies, daily injection over 10 days; assay type: in vivo
Description: Preliminary toxicity studies were performed. Mice were injected (vehicle alone, 8 mg/kg, or 16 mg/kg) daily over a 10 day-period with a 2-day holiday after the first 4 days.

[6] = system: human cancer cell lines derived from 9 different tissues; experiment: NCI 60-cell line screen, growth inhibition (sulforhodamine B); assay type: cell-based; conditions: colon and prostate cancer cell lines; 48 hours incubation
Description: FIG. 1. Mean graph representing the sensitivity of 60 human cell lines to compound 1. The vertical line at GI50 (the drug concentration resulting in a 50% growth reduction) represents the mean response to 10 μM compound 1.
FIG. 2. Growth response of human cell lines grown for 2 days in the presence of increasing concentrations of compound 1.
The compounds have broad specificity and affect human cell lines of multiple lineages. The growth inhibitory properties were analyzed in human cancer cell lines derived from 9 different tissues in the NCI 60-cell line screen. To perform this assay, cells were plated in 96-well plates and incubated overnight. After 24 hours, compounds were added to the wells and plates. Two plates of each cell line were set aside and fixed in TCA to measure the quantity of cells present at the time drug was added (time 0). The remaining plates were incubated for 48 hours. The assay was terminated by addition of TCA, and the cells were quantified by staining the cellular proteins with sulforhadamine B. The growth inhibition (GI50) was calculated by dividing the difference between treated cells at the beginning and end of the assay by the difference between untreated cells at the beginning and end of the assay.

[7] = system: normal murine bone marrow progenitors; experiment: Therapeutic window: human B-ALL cell lines versus normal bone marrow progenitors; assay type: cell-based, human and murine
[8] = system: MV411-lucifease cell line; experiment: In vitro sensitivity of MV411-luciferase cell line; assay type: cell-based, human
[9] = Solubility / formulation property; assay type: physicochemical
[10] = system: human leukemia cell lines with MLL translocations; experiment: Viability of human leukemia (B-ALL) cell lines, cell titer blue assay; assay type: cell-based; conditions: 72 h, viability 3 days post-treatment, read-out: IC50 (half maximal inhibitory concentration)
Description: (§2) FIG. 3. Inhibition of human B-ALL cell lines treated with compound. Cell lines were treated with increasing concentrations of compound and assessed for viability 3 days post-treatment by cell titer blue assay.
as §1

[11] = system: cells lines with other translocations (E2A-PBX, E2A-HLF, TEL-PDGFRB); experiment: as above; assay type: cell-based; conditions: read-out: IC50 (half maximal inhibitory concentration)
Description: as §2, §1

[12] = system: AML cell lines induced by MLL-AF10 or MLL-AF9; experiment: Effects on murine leukemia cell lines established from AMLs induced by MLL fusion oncogenes; assay type: cell-based
Description: Compound 1 was also tested for its effects on murine leukemia cell lines established from AMLs induced via retroviral transduction of MLL fusion oncogenes (Somervaille, T. C. & Cleary, M. L. Identification and characterization of leukemia stem cells in murine MLL-AF9 acute myeloid leukemia. Cancer Cell 10, 257-268, (2006)).

[13] = system: MLL leukemia cell lines (RS411-MLL-AF4; HB-MLL-ENL) and control cells (REH-TEL-AML); experiment: Cell-based high-throughput phenotypic screen, cell viability by fluorescent indicator dye; set-up: species or system human; conditions: 2 days after addition of compounds
Description: Cell viability was assessed using a fluorescent indicator dye at 2 days after addition of compounds.

Structure (SMILES): Cc1ccc(S(=O)(=O)Cc2nc(-c3ccc(C(=O)NCc4cccnc4)cc3)oc2C)cc1 [Compound 1]
- nephrotoxicity ([1]; gamma-cyclodextrin formulation, 20 mg/kg s.c. twice a day): No nephrotoxicity was observed
- toxic side effects (histological tissue morphology, serological liver and kidney function tests) ([1]; s.c. twice a day, 20 mg/kg (5% DMSO/20% gamma-cyclodextrin) or 22.5 mg/kg (10% DMSO/40% captisol)): No toxic side effects were observed
- compound remaining in plasma ([2]; at 24 hours): almost no compound remained
- half-life ([2]; mouse, plasma, 16 mg/kg i.p. or s.c. (10% DMSO/40% captisol), 25 mg/kg i.p., s.c., oral (5% DMSO/20% gamma-cyclodextrin)): ~1.5 h
- absorption into plasma ([2]; single intra-peritoneal or subcutaneous injection 16 mg/kg): quickly absorbed in plasma
- IC50 [3]: 4 to 20 nM
- kinetics of cell death: completion ([4]; after treatment): 48 h
- kinetics of cell death: initiation ([4]; after treatment): 24 h
- time to death by apoptosis ([4]; single treatment, annexin V and propidium iodide staining): ≤ 3 days
- tolerability (distress, body weight reduction) ([5]; mice, 8 or 16 mg/kg daily over 10 days with 2-day holiday): All but one animal tolerated dosing
- nephrotoxicity ([5]; mice, captisol formulation, also seen in animals treated with vehicle only): Mild nephrotoxicity
- cardiotoxicity ([5]; mice, high-dose group (16 mg/kg)): Severe cardiotoxicity in one animal and mild cardiotoxicity in another animal
- MTD or lethal dose ([5]; mouse, in vivo): not achieved
- growth inhibitory activity (GI50) in NCI 60-cell line screen [6]: particularly high activity
- sensitivity of human B-ALL cells versus normal murine bone marrow progenitor cells [7]: differential sensitivity
- IC50 ([8]; Homo sapiens, MV411-luciferase cell line): 10 nM
- IC100 ([8]; MV411-luciferase cell line, printed with (±20 nM)): 25 nM
- effect of pre-incubation with FBS on potency ([8]; pre-incubation of compound with FBS prior to cell treatment in vitro): no effect on potency
- solubility [9]: sparingly soluble
- IC50 [10]: 1 to 10 nM
- IC50 [11]: 10 to 20 nM
- sensitivity of murine AML cell lines [12]: highly sensitive

Structure (SMILES): CC(=O)[C@]1(O)Cc2c(O)c3c(c(O)c2[C@@H](O[C@H]2C[C@H](N)[C@H](O)[C@H](C)O2)C1)C(=O)c1ccccc1C3=O [idarubicin, reference compound]
- sensitivity of human B-ALL cells versus normal murine bone marrow progenitor cells [7]: overlapping potency
- cell viability in high-throughput screen [13]: reduced viability of all cell lines
